Reference: patent publication US20060020022A1, “Enantioselective separation method” (PHARMACIA & UPJOHN COMPANY LLC, priority 2004, published 2006)
One block for each compound: values may come before it.

How the values were obtained:
[1] = Photoracemization in ethanol in a 400-mL photoreactor with 450 W UV lamp, e.e. by enantioselective HPLC; format: physicochemical
Experimental: The mixture was irradiated and aliquots were taken at about time=0, 12, 24, 41, 60, 87, 105, 135, and 162 minutes and analyzed by HPLC.
The natural logarithm of e.e. at each time point was determined for each aliquot.
Half-lives (minutes) and specific half-lives (minutes per gram) were calculated for each concentration.
(§1) Using the procedure of Example (E), 10-g of (R)-8-ethyl-6-trifluoromethoxy-2-trifluoromethyl-2H-chromene-3-carboxylic acid was dissolved in 400 mL of ethanol to a concentration of 25-mg/mL, and the mixture was filtered to remove a small amount of insoluble material. The filtrate was placed in the photoreactor and irradiated.
as §1, with “(R)-6,8-dimethyl-2-trifluoromethyl-2H-chromene-3-carboxylic” for “(R)-8-ethyl-6-trifluoromethoxy-2-trifluoromethyl-2H-chromene-3-carboxylic”

[2] = Photoracemization in ethanol in a quartz cuvette under a UV spot lamp, e.e. by enantioselective HPLC; format: physicochemical; conditions: for ln (e.e.): 66.7-mg/mL in ethanol; for e.e. by HPLC after irradiation: 50-mg/mL in ethanol, start 21% e.e. of (S), 4 W/cm^2
Experimental: Using a column with 0.46 cm inner diameter and 250 mm length filled with […]® AD stationary phase, a 10 μL injection volume, by eluting at room temperature with mobile phase (volume proportions) 95%/5% heptane:ethanol with 0.1% trifluoroacetic acid, at room temperature, flow rate at 1 mL/minute isocratic, and detected with a photodiode array detector at 254 nm wavelength, and a run time of 10 minutes.
A 1.0-mg/mL solution of (S)-6-chloro-7-tert-butyl-2-trifluoromethyl-2H-chromene-3-carboxylic acid in ethanol was placed in a quartz cuvette and irradiated with light from a UV spot lamp that produced a 5 mm diameter spot of UV light (320-390 nm wavelength) at 4 W/cm^2 intensity.
The first aliquot was placed in a quartz cuvette and irradiated in 90-second intervals over 25 minutes with light from a UV spot lamp that produced a 5 mm diameter spot of UV light (320-390 nm wavelength) at 4 W/cm^2 intensity to give a solution with 7.4% e.e. by HPLC. The second aliquot was placed in a quartz cuvette and irradiated continuously over 25 minutes with light from the UV spot lamp to give a solution with 12% e.e. by HPLC.
A 40-mg/mL solution of (S)-6-chloro-7-tert-butyl-2-trifluoromethyl-2H-chromene-3-carboxylic acid in ethanol was placed in a quartz cuvette and irradiated with light from a UV spot lamp that produced a 5 mm diameter spot of UV light (320-390 nm wavelength) at 4 W/cm^2 intensity. Aliquots were taken at time=0, 1, 2, 4, 8, 12, and 16 minutes and analyzed by HPLC. The experiment was repeated. A rate constant k for each of the two experiments (k1 and k2) was calculated using the following equation: [formula] wherein t is the time in minutes, C is the concentration of chromene in moles per liter, and ln (e.e.) is the natural logarithm of percent enantiomeric excess. The rate constant k1 was 0.0764/minute and k2 was 0.0787/minute. A half-live τ for each of the two experiments (τ1 and τ2) was calculated using the following equation: [formula] […] A specific half-life of about 30 minutes per gram of enantiomer was calculated.
The procedure of Example (C) was repeated except the concentration of (S)-6-chloro-7-tert-butyl-2-trifluoromethyl-2H-chromene-3-carboxylic acid in ethanol was 66.7-mg/mL. Aliquots were taken at time=0, 1, 2, 4, 8, 12, and 16 minutes and analyzed by HPLC. The natural logarithm of e.e. at each time point was determined for each aliquot. […] The natural logarithm of e.e. data is provided below in Table 1 in the row labeled “ln (e.e.).”

[3] = 10-g in 400 mL ethanol, 25-mg/mL, t=5 minutes

HPLC finding after UV irradiation ([2]; 1.0-mg/mL in ethanol, UV 320-390 nm at 4 W/cm^2, after 30 minutes): racemic mixture | rate constant k1 ([2]; 40-mg/mL in ethanol, first experiment): 0.0764 min⁻¹ | rate constant k2 ([2]; 40-mg/mL in ethanol, repeated experiment): 0.0787 min⁻¹ | ln (e.e.) ([2]; time 0 minutes): 4.4 | ln (e.e.) ([2]; time 1 minute): 4.3 | ln (e.e.) ([2]; time 2 minutes): 4.2 | ln (e.e.) ([2]; time 4 minutes): 4.0 | ln (e.e.) ([2]; time 8 minutes): 3.8 | ln (e.e.) ([2]; time 12 minutes): 3.4 | ln (e.e.) ([2]; time 16 minutes): 3.3
Structure (SMILES): CC(C)(C)c1cc2c(cc1Cl)C=C(C(=O)O)[C@@H](C(F)(F)F)O2 [(S)-6-chloro-7-tert-butyl-2-trifluoromethyl-2H-chromene-3-carboxylic acid]

e.e. by HPLC after irradiation ([2]; irradiated continuously over 25 minutes): 12% | e.e. by HPLC after irradiation ([2]; irradiated in 90-second intervals over 25 minutes): 7.4%
Structure (SMILES): CC(C)(C)c1cc2c(cc1Cl)C=C(C(=O)O)C(C(F)(F)F)O2 [(S)- and (R)-6-chloro-7-tert-butyl-2-trifluoromethyl-2H-chromene-3-carboxylic acid]

The remaining lines, values behind:

Structure (SMILES): Cc1cc(C)c2c(c1)C=C(C(=O)O)[C@H](C(F)(F)F)O2 [(R)-6,8-dimethyl-2-trifluoromethyl-2H-chromene-3-carboxylic acid]
ln (e.e.) [1, 3]: about 4.2 | ln (e.e.) ([1]; 10-g in 400 mL ethanol, 25-mg/mL, t=105 minutes): about 1.0

Structure (SMILES): CCc1cc(OC(F)(F)F)cc2c1O[C@@H](C(F)(F)F)C(C(=O)O)=C2 [(R)-8-ethyl-6-trifluoromethoxy-2-trifluoromethyl-2H-chromene-3-carboxylic acid]
ln (e.e.) [1, 3]: about 4.3 | ln (e.e.) ([1]; 10-g in 400 mL ethanol, 25-mg/mL, t=95 minutes): about 1.4

Structure (SMILES): CC(C)(C)c1cc2c(cc1Cl)C=C(C(=O)O)[C@H](C(F)(F)F)O2 [(R)-6-chloro-7-tert-butyl-2-trifluoromethyl-2H-chromene-3-carboxylic acid]
τ ([1]; 4.00 g enantiomer, 10.0 mg/mL in ethanol): 9.08 min | τ ([1]; 8.00 g enantiomer, 20.0 mg/mL in ethanol): 16.38 min | τ ([1]; 10.00 g enantiomer, 25.00 mg/mL in ethanol): 19.68 min | τ ([1]; 13.00 g enantiomer, 32.5 mg/mL in ethanol): 22.57 min | τ ([1]; 16.00 g enantiomer, 40.0 mg/mL in ethanol, from Example (E)): 31.65 min | rate constant k ([1]; 16 g in 400 mL ethanol, 40-g/L): 0.0109 min⁻¹ | τ ([1]; 20.04 g enantiomer, 50.1 mg/mL in ethanol): 31.39 min | ln (e.e.) ([1]; 40-g/L in ethanol, time 0 minutes): 4.5 | ln (e.e.) ([1]; 40-g/L in ethanol, time 12 minutes): 4.3 | ln (e.e.) ([1]; 40-g/L in ethanol, time 24 minutes): 4.0 | ln (e.e.) ([1]; 40-g/L in ethanol, time 41 minutes): 3.6 | ln (e.e.) ([1]; 40-g/L in ethanol, time 60 minutes): 3.2 | ln (e.e.) ([1]; 40-g/L in ethanol, time 87 minutes): 2.7 | ln (e.e.) ([1]; 40-g/L in ethanol, time 105 minutes): 2.2 | ln (e.e.) ([1]; 40-g/L in ethanol, time 135 minutes): 1.6 | ln (e.e.) ([1]; 40-g/L in ethanol, time 162 minutes): 1.1
